Experimental findings from patent US8404679B2, “Pyrrolidine derivatives as NK2 receptor antagonists” (Hoffmann-La Roche Inc., priority 2008, dated 2013) are described below.

The assay deals with T1, human NK2 receptor (Homo sapiens, UniProt P21452).
T1 construct: purchased Perkin Elmer biosignal Inc. 6110510
T1 sequence (P21452 1-398): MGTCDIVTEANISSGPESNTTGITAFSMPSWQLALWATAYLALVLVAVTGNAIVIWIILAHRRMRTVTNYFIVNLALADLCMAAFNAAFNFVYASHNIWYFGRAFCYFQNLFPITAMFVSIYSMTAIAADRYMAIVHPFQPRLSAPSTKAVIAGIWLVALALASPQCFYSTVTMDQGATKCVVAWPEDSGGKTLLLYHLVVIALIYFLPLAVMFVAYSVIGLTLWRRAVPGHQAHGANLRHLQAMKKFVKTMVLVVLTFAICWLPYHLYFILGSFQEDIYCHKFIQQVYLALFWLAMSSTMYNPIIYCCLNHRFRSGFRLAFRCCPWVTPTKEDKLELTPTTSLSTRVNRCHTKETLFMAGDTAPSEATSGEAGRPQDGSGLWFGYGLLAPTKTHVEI
In words: [3H]SR48968 competition binding assay. As to conditions: [3H]SR48968 displacement, membranes of CHO cells stably expressing recombinant human NK2 receptor; Ki from IC50 by Cheng-Prussoff. The essentials:
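Membranes from CHO cells stably expressing recombinant human NK2 were incubated 75 min at RT with [3H]SR48968 at its KD and 10 compound concentrations (0.0003–10 μM) in Tris-HCl pH 7.4, MnCl2, chymostatin, BSA. Filter-bound radioactivity was counted; Hill-fitted IC50 converted to Ki via Cheng-Prusoff.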

The Ki is the dissociation constant of the complex between target and ligand, obtained from inhibition or displacement.

Molecules are shown by their SMILES.

Take `CN(C(=O)c1ccc(Cl)c(C(F)(F)F)c1)[C@H]1CN(C(=O)C2CCN(S(=O)(=O)C3CC3)CC2)C[C@@H]1c1ccc(Cl)cc1` (racemic) [Example 161, 4-Chloro-N-[(3RS,4SR)-4-(4-chloro-phenyl)-1-(1-cyclopropanesulfonyl-piperidine-4-carbonyl)-pyrrolidin-3-yl]-N-methyl-3-trifluoromethyl-benzamide]: the Ki was 1.7 nM.
To `CN(C(=O)c1ccc(Cl)c(C(F)(F)F)c1)[C@H]1CN(C(=O)C2CCN(C3CCOCC3)CC2)C[C@@H]1c1ccc(Cl)cc1` (racemic) [Example 162, 4-Chloro-N-{(3RS,4SR)-4-(4-chloro-phenyl)-1-[1-(tetrahydro-pyran-4-yl)-piperidine-4-carbonyl]-pyrrolidin-3-yl}-N-methyl-3-trifluoromethyl-benzamide] belongs 0.4 nM; to `CN(C(=O)c1ccc(Cl)c(C(F)(F)F)c1)[C@H]1CN(C(=O)C2CCN(CC#N)CC2)C[C@@H]1c1ccc(Cl)cc1` (racemic) [Example 163, 4-Chloro-N-[(3RS,4SR)-4-(4-chloro-phenyl)-1-(1-cyanomethyl-piperidine-4-carbonyl)-pyrrolidin-3-yl]-N-methyl-3-trifluoromethyl-benzamide], 3.7 nM.
In the case of `CN(C(=O)c1ccc(Cl)c(C(F)(F)F)c1)[C@H]1CN(C(=O)C2CCN(CC3CC3)CC2)C[C@@H]1c1ccc(Cl)c(Cl)c1` (racemic) [Example 164, 4-Chloro-N-[(3RS,4SR)-1-(1-cyclopropylmethyl-piperidine-4-carbonyl)-4-(3,4-dichloro-phenyl)-pyrrolidin-3-yl]-N-methyl-3-trifluoromethyl-benzamide], the Ki came to 0.5 nM.
Take `CN(C(=O)c1ccc(Cl)c(C(F)(F)F)c1)[C@H]1CN(C(=O)C2CCN(CCC#N)CC2)C[C@@H]1c1ccc(Cl)cc1` (racemic) [Example 165, 4-Chloro-N-{(3RS,4SR)-4-(4-chloro-phenyl)-1-[1-(2-cyano-ethyl)-piperidine-4-carbonyl]-pyrrolidin-3-yl}-N-methyl-3-trifluoromethyl-benzamide]: the Ki stood at 1.3 nM.
For `CN(C(=O)c1cc(C(F)(F)F)ccn1)[C@H]1CN(C(=O)C2CCN(C(=O)C3(C)CC3)CC2)C[C@@H]1c1ccc(Cl)c(Cl)c1` (racemic) [Example 166, 4-Trifluoromethyl-pyridine-2-carboxylic acid {(3RS,4SR)-4-(3,4-dichloro-phenyl)-1-[1-(1-methyl-cyclopropanecarbonyl)-piperidine-4-carbonyl]-pyrrolidin-3-yl}-methyl-amide], the inhibition constant Ki was 0.7 nM.
For `CN(C(=O)c1ccc(Cl)c(Br)c1)[C@H]1CN(C(=O)C2CCN(C(=O)C3(C)CC3)CC2)C[C@@H]1c1ccc(Cl)c(Cl)c1` (racemic) [Example 171, 3-Bromo-4-chloro-N-{(3RS,4SR)-4-(3,4-dichloro-phenyl)-1-[1-(1-methyl-cyclopropanecarbonyl)-piperidine-4-carbonyl]-pyrrolidin-3-yl}-N-methyl-benzamide] the value was 0.8 nM; for `CN(C(=O)c1ccc(Cl)c(C2CC2)c1)[C@H]1CN(C(=O)C2CCN(C(=O)C3(C)CC3)CC2)C[C@@H]1c1ccc(Cl)c(Cl)c1` (racemic) [Example 173, 4-Chloro-3-cyclopropyl-N-{(3RS,4SR)-4-(3,4-dichloro-phenyl)-1-[1-(1-methyl-cyclopropanecarbonyl)-piperidine-4-carbonyl]-pyrrolidin-3-yl}-N-methyl-benzamide], 1.7 nM; for `CCc1cc(C(=O)N(C)[C@H]2CN(C(=O)C3CCN(C(=O)C4(C)CC4)CC3)C[C@@H]2c2ccc(Cl)c(Cl)c2)ccc1Cl` (racemic) [Example 174, 4-Chloro-N-{(3RS,4SR)-4-(3,4-dichloro-phenyl)-1-[1-(1-methyl-cyclopropanecarbonyl)-piperidine-4-carbonyl]-pyrrolidin-3-yl}-3-ethyl-N-methyl-benzamide], 0.9 nM.
To `COc1ccc(C(=O)N(C)[C@@H]2CN(C(=O)N3CCN(S(C)(=O)=O)[C@@H](C)C3)C[C@H]2c2ccc(Cl)c(Cl)c2)cc1C(F)(F)F` [Example 42] belongs 1.4 nM; to `COc1ccc(C(=O)N(C)[C@@H]2CN(C(=O)N3CCN(S(C)(=O)=O)[C@H](C)C3)C[C@H]2c2ccc(Cl)c(Cl)c2)cc1C(F)(F)F` [Example 43], 2.23 nM.
For `COc1ccc(C(=O)N(C)[C@@H]2CN(C(=O)C3CCN(C(=O)C4(C)CC4)CC3)C[C@H]2c2ccc(Cl)cc2)cc1C(F)(F)F` [Example 94, N-{(3S,4R)-4-(4-Chloro-phenyl)-1-[1-(1-methyl-cyclopropanecarbonyl)-piperidine-4-carbonyl]-pyrrolidin-3-yl}-4-methoxy-N-methyl-3-trifluoromethyl-benzamide], the Ki stood at 0.6 nM.
For `COc1ccc(C(=O)N(C)[C@@H]2CN(C(=O)C3CCN(C(=O)C4(C)CC4)CC3)C[C@H]2c2ccc(Cl)c(Cl)c2)cc1C(F)(F)F` [Example 107, N-{(3S,4R)-4-(3,4-Dichloro-phenyl)-1-[1-(1-methyl-cyclopropanecarbonyl)-piperidine-4-carbonyl]-pyrrolidin-3-yl}-4-methoxy-N-methyl-3-trifluoromethyl-benzamide] the value was 0.6 nM; for `CN(C(=O)Cc1ccc(F)cc1)[C@H]1CN(C(=O)C2CCN(C(=O)C3(C)CC3)CC2)C[C@@H]1c1ccc(Cl)c(Cl)c1` [Example 118, N-{(3R,4S)-4-(3,4-Dichloro-phenyl)-1-[1-(1-methyl-cyclopropanecarbonyl)-piperidine-4-carbonyl]-pyrrolidin-3-yl}-2-(4-fluoro-phenyl)-N-methyl-acetamide], 32.4 nM.
To `CN(C(=O)Cc1ccc(F)cc1)[C@@H]1CN(C(=O)C2CCN(C(=O)C3(C)CC3)CC2)C[C@H]1c1ccc(Cl)c(Cl)c1` [Example 119, N-{(3S,4R)-4-(3,4-Dichloro-phenyl)-1-[1-(1-methyl-cyclopropanecarbonyl)-piperidine-4-carbonyl]-pyrrolidin-3-yl}-2-(4-fluoro-phenyl)-N-methyl-acetamide] belongs 11.3 nM; to `COc1ccc(C(=O)N(C)[C@H]2CN(C(=O)C3CCN(C(=O)C4(C)CC4)CC3)C[C@@H]2c2ccc(Cl)cc2C)cc1C(F)(F)F` [Example 123, N-{(3R,4S)-4-(4-Chloro-2-methyl-phenyl)-1-[1-(1-methyl-cyclopropanecarbonyl)-piperidine-4-carbonyl]-pyrrolidin-3-yl}-4-methoxy-N-methyl-3-trifluoromethyl-benzamide], 38 nM; to `CN(C(=O)c1ccc(Cl)c(C(F)(F)F)c1)[C@H]1CN(C(=O)C2CCN(CC3CC3)CC2)C[C@@H]1c1ccc(Cl)cc1` [Example 153, 4-Chloro-N-[(3R,4S)-4-(4-chloro-phenyl)-1-(1-cyclopropylmethyl-piperidine-4-carbonyl)-pyrrolidin-3-yl]-N-methyl-3-trifluoromethyl-benzamide], 52.7 nM.
To `CN(C(=O)c1ccc(Cl)c(C(F)(F)F)c1)[C@@H]1CN(C(=O)C2CCN(CC3CC3)CC2)C[C@H]1c1ccc(Cl)cc1` [Example 154, 4-Chloro-N-[(3S,4R)-4-(4-chloro-phenyl)-1-(1-cyclopropylmethyl-piperidine-4-carbonyl)-pyrrolidin-3-yl]-N-methyl-3-trifluoromethyl-benzamide] belongs 0.5 nM; to `CN(C(=O)c1ccc(Cl)c(C(F)(F)F)c1)[C@@H]1CN(C(=O)C2CCN(C(=O)C3(C)CC3)CC2)C[C@H]1c1ccc(Cl)cc1` [Example 156, 4-Chloro-N-{(3S,4R)-4-(4-chloro-phenyl)-1-[1-(1-methyl-cyclopropanecarbonyl)-piperidine-4-carbonyl]-pyrrolidin-3-yl}-N-methyl-3-trifluoromethyl-benzamide], 0.8 nM.
On to `CN(C(=O)c1ccc(Cl)c(C(F)(F)F)c1)[C@@H]1CN(C(=O)C2CCN(CC3CC3)CC2)C[C@H]1c1ccc(Cl)c(Cl)c1` [Example 167, 4-Chloro-N-[(3S,4R)-1-(1-cyclopropylmethyl-piperidine-4-carbonyl)-4-(3,4-dichloro-phenyl)-pyrrolidin-3-yl]-N-methyl-3-trifluoromethyl-benzamide], for which the Ki came out at 93.6 nM.
As for `CN(C(=O)c1ccc(Cl)c(C(F)(F)F)c1)[C@H]1CN(C(=O)C2CCN(CC3CC3)CC2)C[C@@H]1c1ccc(Cl)c(Cl)c1` [Example 168, 4-Chloro-N-[(3R,4S)-1-(1-cyclopropylmethyl-piperidine-4-carbonyl)-4-(3,4-dichloro-phenyl)-pyrrolidin-3-yl]-N-methyl-3-trifluoromethyl-benzamide], the inhibition constant Ki is 0.4 nM.
`CN(C(=O)c1cc(C(F)(F)F)ccn1)[C@@H]1CN(C(=O)C2CCN(C(=O)C3(C)CC3)CC2)C[C@H]1c1ccc(Cl)c(Cl)c1` [Example 170, 4-Trifluoromethyl-pyridine-2-carboxylic acid {(3S,4R)-4-(3,4-dichloro-phenyl)-1-[1-(1-methyl-cyclopropanecarbonyl)-piperidine-4-carbonyl]-pyrrolidin-3-yl}-methyl-amide]: the Ki amounted to 0.4 nM.
In the case of `CN(C(=O)c1ccc(Cl)c(C2CC2)c1)[C@H]1CN(C(=O)C2CCN(C(=O)C3(C)CC3)CC2)C[C@@H]1c1ccc(Cl)c(Cl)c1` [Example 175, 4-Chloro-3-cyclopropyl-N-{(3R,4S)-4-(3,4-dichloro-phenyl)-1-[1-(1-methyl-cyclopropanecarbonyl)-piperidine-4-carbonyl]-pyrrolidin-3-yl}-N-methyl-benzamide], the inhibition constant (Ki) turned out to be 42 nM.
